From PMC7824787, “Design, Synthesis and In Vitro Investigation of Novel Basic Celastrol Carboxamides as Bio-Inspired Leishmanicidal Agents Endowed with Inhibitory Activity against Leishmania Hsp90” (Biomolecules, 2021)
Like-named read-outs stand apart in the source and are kept apart here.

How the values were obtained:
[1] = test system: L. infantum promastigotes; test: Antileishmanial activity on L. infantum promastigotes (MTT); assay type: cell-based
LbHsp90 = LbHsp90 (Leishmania braziliensis, UniProt A4HL70); test: In vitro inhibition of the ATPase activity of LbHsp90 (Malachite Green Phosphate Assay); assay type: biochemical; conditions: 7 μM LbHsp90, 27 °C, 60 min
Sequence of LbHsp90 (A4HL70 entry or part of it): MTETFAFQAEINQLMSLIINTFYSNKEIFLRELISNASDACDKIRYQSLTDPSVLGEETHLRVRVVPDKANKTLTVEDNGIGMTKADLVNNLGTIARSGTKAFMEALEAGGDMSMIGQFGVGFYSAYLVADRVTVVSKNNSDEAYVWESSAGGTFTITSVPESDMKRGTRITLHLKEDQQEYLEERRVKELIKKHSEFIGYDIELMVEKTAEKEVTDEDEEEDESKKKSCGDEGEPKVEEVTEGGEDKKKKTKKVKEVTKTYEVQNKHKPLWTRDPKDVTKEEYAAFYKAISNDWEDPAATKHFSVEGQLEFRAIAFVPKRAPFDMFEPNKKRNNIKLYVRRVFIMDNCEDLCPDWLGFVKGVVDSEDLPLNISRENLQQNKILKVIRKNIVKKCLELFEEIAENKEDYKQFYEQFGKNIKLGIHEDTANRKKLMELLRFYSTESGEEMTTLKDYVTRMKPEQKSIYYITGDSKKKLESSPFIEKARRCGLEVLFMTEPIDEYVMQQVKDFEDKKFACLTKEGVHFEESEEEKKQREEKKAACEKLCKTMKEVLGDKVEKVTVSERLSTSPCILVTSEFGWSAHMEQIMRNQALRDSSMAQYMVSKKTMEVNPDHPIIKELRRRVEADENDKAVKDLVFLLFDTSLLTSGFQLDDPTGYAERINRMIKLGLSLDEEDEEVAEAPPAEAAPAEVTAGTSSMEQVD
Excerpt: To evaluate in vitro the modulatory activity of CE, PR and CE caboxamides, a full-length recombinant Hsp90 from L. braziliensis (LbHsp90) was produced in E. coli BL21 DE3 harboring the pET28a_LbHsp90 coding for the C-terminal His-tagged target chaperone (genbank number: XP_001567804.1, full sequence is reported in Appendix B). Pratically, the plasmid pET28a_LbHsp90, kindly donated by professor J.C. Borges, was transformed in E. coli BL21 DE3 using the TransformAid Bacterial Transformation Kit (Thermo Fisher, Waltham, MA, USA). Subsequently, the obtained transformants were grown overnight in LB medium containing 30 μg mL^−1 kanamycin (LBkan30) and then inoculated in 1 L SB kan30 medium (Yeast extract 30 g L^−1, Tryptone 20 g L^−1, NaCl 10 g L^−1) at 37 °C and 220 rpm. When the OD600 reached 0.5–1, gene expression was induced by the addition of 2 mL of 1 M IPTG solution in water and the culture was shifted at 30 °C for 24 h. After cell harvesting by centrifugation (5000 rpm for 30 min), the cell pellet was resuspended in 20 mL of wash buffer (20 mM HEPES buffer, pH 7.0, 500 mM NaCl, 20 mM imidazole) and recombinant E. coli BL21DE3 cells were disrupted by ultrasonication. LbHsp90 was subsequently purified using a Nickel Sepharose 6 Fast Flow agarose resin (Ni-NTA) (GE Healthcare, Milan, Italy) as follows. Soluble protein fraction was separated from cell debris by centrifugation (10,000 rpm for 30min) after cell ultrasonication, and clear lysates were incubated with the Ni-NTA resin for 90 min at 4 °C under mild shaking and loaded onto a glass column (10 × 110 mm). The resin was then washed with 10mL of wash buffer and His-tagged LbHsp90 was eluted using a 3 step gradient (10 mL washing buffer containing 100, 200, and 300 mM imidazole, respectively) and dialyzed against 20 mM HEPES buffer (20 mM, pH 7.5), at 4 °C overnight. The protein content was measured using the Bio-Rad Protein Assay (Hercules, CA, USA) according to the Bradford method and the protein purity was verified by SDS-PAGE analysis (10% T, 2.6% C). It is worth noting that to avoid interferences with the assays described below, proteins were purified and conserved in HEPES buffer (20 mM, pH 7.5) in place of the standard PB-buffer. Reported data are the mean of two experiments run in duplicate.
Modulatory activity toward the ATPase cycle of LbHsp90 was determined using a Malachite Green Phosphate Assay Kit (Catalog Number MAK307, Sigma-Aldrich®, St. Louis, MO, USA). Analyses were run in a 96-well plate directly following the quantitative formation of a green complex between Malachite Green, molybdate, and free orthophosphate (Pi) produced by ATP hydrolysis catalyzed by the chaperone. Color formation from the reaction was measured on a plate reader at 620 nm. Briefly, the IC50 of CE and its derivatives were extrapolated from a set of dose-response curves obtained by calculating the amount of Pi produced by LbHsp90 in the presence of different compounds concentrations.
Reactions were run in HEPES buffer (20 mM, pH 7.5) containing 3 mM MgCl2 and 50 mM KCl in the presence of different compounds concentrations ([…]), LbHsp90 (7 μM) and ATP (25 mM) at 27 °C for 60 min. OD620 was measured 30 min after Malachite Green reactants addition.
LbHsp90 native activity was measured by conducting the reaction in the presence of just LbHsp90 and ATP and extrapolating the concentration of Pi obtained.
Three sets of control experiments, (1) ATP background hydrolysis, (2) compounds-related interferences and (3) protein-related background coloration, were run as follow: • (1) ATP (25 mM) incubated at 27 °C for 60 min • (2) Compounds (different concentrations) incubated with ATP (25 mM) at 27 °C for 60 min • (3) LbHsp90 (7 μM) at 27 °C for 60 min
The in vitro performances of CE, PR and the carboxamides 1–11 (Figure 4) as potential inhibitors of the Leishmania braziliensis Hsp90 were investigated using Sigma-Aldrich® Malachite Green Phosphate Assay Kit. […]

[2] = 72 h, 23 °C, MTT; read-out: Leishmania Promastigotes IC50, L. infantum
[3] = Leishmania infantum, 72 h, 23 °C, MTT, read-out: Leishmania Promastigotes IC50, L. infantum

| SMILES | IC50 [1, 2] [nM] | IC50 [1, 3] [nM] | IC50 (LbHsp90) [nM] | IC50 ([1]; Leishmania infantum; 72 h, 23 °C, MTT; read-out: Leishmania Promastigotes IC50, L. infantum) [nM] |
| --- | --- | --- | --- | --- |
| CC1=C(O)C(=O)C=C2C1=CC=C1[C@@]2(C)CC[C@@]2(C)[C@@H]3C[C@](C)(C(=O)NCC45CCCN4CCC5)CC[C@]3(C)CC[C@]12C [compound 5, (2R,4aS,6aS,12bR,14aS,14bR)-N-((hexahydro-1H-pyrrolizin-7a-yl)methyl)-10-hydroxy-2,4a,6a,9,12b,14a-hexamethyl-11-oxo-1,2,3,4,4a,5,6,6a,11,12b,13,14,14a,14b-tetradecahydropicene-2-carboxamide] |  | 120 ± 20 | 20000 ± 2000 |  |
| CC1=C(O)C(=O)C=C2C1=CC=C1[C@@]2(C)CC[C@@]2(C)[C@@H]3C[C@](C)(C(=O)NCCSS(C)(=O)=O)CC[C@]3(C)CC[C@]12C [compound 9, S-(2-((2R,4aS,6aS,12bR,14aS,14bR)-10-hydroxy-2,4a,6a,9,12b,14a-hexamethyl-11-oxo-1,2,3,4,4a,5,6,6a,11,12b,13,14,14a,14b-tetradecahydropicene-2-carboxamido)ethyl) methanesulfonothioate] | 2310 ± 280 | 2000 to 4000 | > 150000 |  |
| CC1=C(O)C(=O)C=C2C1=CC=C1[C@@]2(C)CC[C@@]2(C)[C@@H]3C[C@](C)(C(=O)O)CC[C@]3(C)CC[C@]12C [CE, celastrol] |  |  | 201000 ± 10000 | 210 ± 70 |

Continued, in another order:

| IC50 [1, 2] [nM] | IC50 [1, 3] [nM] | IC50 (LbHsp90) [nM] | SMILES | IC50 ([1]; Leishmania infantum; 72 h, 23 °C, MTT; read-out: Leishmania Promastigotes IC50, L. infantum) [nM] |
| --- | --- | --- | --- | --- |
| 60 ± 10 | < 100 | 81000 ± 1000 | CC1=C(O)C(=O)C=C2C1=CC=C1[C@@]2(C)CC[C@@]2(C)[C@@H]3C[C@](C)(C(=O)NCCN4CCCC4)CC[C@]3(C)CC[C@]12C [compound 3, (2R,4aS,6aS,12bR,14aS,14bR)-10-hydroxy-2,4a,6a,9,12b,14a-hexamethyl-11-oxo-N-(2-(pyrrolidin-1-yl)ethyl)-1,2,3,4,4a,5,6,6a,11,12b,13,14,14a,14b-tetradecahydropicene-2-carboxamide] |  |
|  | 60 ± 20 | 83000 ± 2000 | CC1=C(O)C(=O)C=C2C1=CC=C1[C@@]2(C)CC[C@@]2(C)[C@@H]3C[C@](C)(C(=O)NCCN4CCCCC4)CC[C@]3(C)CC[C@]12C [compound 1, (2R,4aS,6aS,12bR,14aS,14bR)-10-hydroxy-2,4a,6a,9,12b,14a-hexamethyl-11-oxo-N-(2-(piperidin-1-yl)ethyl)-1,2,3,4,4a,5,6,6a,11,12b,13,14,14a,14b-tetradecahydropicene-2-carboxamide] |  |
|  | 90 ± 30 | 65000 ± 4000 | CC1=C(O)C(=O)C=C2C1=CC=C1[C@@]2(C)CC[C@@]2(C)[C@@H]3C[C@](C)(C(=O)NCCNc4ccnc5cc(Cl)ccc45)CC[C@]3(C)CC[C@]12C [compound 6, (2R,4aS,6aS,12bR,14aS,14bR)-N-(2-((7-chloroquinolin-4-yl)amino)ethyl)-10-hydroxy-2,4a,6a,9,12b,14a-hexamethyl-11-oxo-1,2,3,4,4a,5,6,6a,11,12b,13,14,14a,14b-tetradecahydropicene-2-carboxamide] |  |
